Data as given in ChEMBL document CHEMBL1201862, “PubChem BioAssay data set” (2004).
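Growth conditions: 96-well plates. Treatment: test compound, 48 hours, 5 concentrations. Analysis: linear interpolation between bracketing concentrations; unreached endpoints set to highest concentration. Abbreviation: GI50, concentration required for 50% inhibition of growth.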 Calls of active or inactive are those of the source. Cut-off read from the data, not from the text of the source: active = GI50 up to about 1.1 µM and inactive = higher.

Experiments:
Test in all cases: NCI anticancer screen, dose series, 48 h
MDA-N = test system: MDA-N
SK-MEL-28 = test system: SK-MEL-28
786-0 = test system: 786-0
ACHN = test system: ACHN
T47D = test system: T47D
NCI-H460 = test system: NCI-H460
HCT-15 = test system: HCT-15
SF-268 = test system: SF-268
NCI-H522 = test system: NCI-H522
SF-295 = test system: SF-295
HOP-62 = test system: HOP-62
CAKI-1 = test system: CAKI-1
EKVX = test system: EKVX
HOP-92 = test system: HOP-92
CCRF-CEM = test system: CCRF-CEM
RXF 393 = test system: RXF 393
SNB-75 = test system: SNB-75
MCF7 = test system: MCF7
NCI-H23 = test system: NCI-H23
OVCAR-8 = test system: OVCAR-8
COLO 205 = test system: COLO 205
TK-10 = test system: TK-10
NCI/ADR-RES = test system: NCI/ADR-RES
UO-31 = test system: UO-31
PC-3 = test system: PC-3
UACC-257 = test system: UACC-257
HCC 2998 = test system: HCC 2998
KM12 = test system: KM12
SW-620 = test system: SW-620
HT-29 = test system: HT-29
SK-MEL-5 = test system: SK-MEL-5
UACC-62 = test system: UACC-62
NCI-H226 = test system: NCI-H226
Malme-3M = test system: Malme-3M
HL-60 = test system: HL-60
RPMI-8226 = test system: RPMI-8226
SK-OV-3 = test system: SK-OV-3
Hs-578T = test system: Hs-578T
M14 = test system: M14
A549 = test system: A549
SF-539 = test system: SF-539
U-251 = test system: U-251
DU-145 = test system: DU-145
SNB-19 = test system: SNB-19
MDA-MB-231 = test system: MDA-MB-231
HCT-116 = test system: HCT-116
K562 = test system: K562
LOX IMVI = test system: LOX IMVI
SN12C = test system: SN12C
MDA-MB-435 = test system: MDA-MB-435
OVCAR-5 = test system: OVCAR-5
MOLT-4 = test system: MOLT-4
OVCAR-3 = test system: OVCAR-3
A498 = test system: A498

For `Cc1ccc2c(/C=C/c3ccc(N(C)C)cc3)ccnc2c1C`, the GI50 (MDA-N) was 3.99 µM (inactive), the GI50 (SK-MEL-28) was 17.1 µM (inactive) and the GI50 (786-0) was 27.4 µM (inactive). For the same molecule, the GI50 (ACHN) was 25.8 µM (inactive), the GI50 (T47D) was 21.1 µM (inactive) and the GI50 (NCI-H460) was 25.6 µM (inactive). For the same molecule, the GI50 (HCT-15) was 12.8 µM, the GI50 (SF-268) was 30.1 µM (inactive) and the GI50 (NCI-H522) was 19.1 µM (inactive). For the same molecule, the GI50 (SF-295) was 22.4 µM (inactive), the GI50 (HOP-62) was 30.8 µM (inactive) and the GI50 (CAKI-1) was 27.4 µM (inactive). The GI50 (EKVX) was 40.4 µM (inactive), the GI50 (HOP-92) was 15.1 µM (inactive) and the GI50 (CCRF-CEM) was 32.9 µM (inactive). For the same molecule, the GI50 (RXF 393) was 18 µM (inactive), the GI50 (SNB-75) was 15.4 µM (inactive) and the GI50 (MCF7) was 15.7 µM (inactive). The GI50 (NCI-H23) was 55.3 µM (inactive), the GI50 (OVCAR-8) was 24.7 µM (inactive) and the GI50 (COLO 205) was 18.4 µM (inactive). The GI50 (TK-10) was 16.2 µM (inactive), the GI50 (NCI/ADR-RES) was 33.2 µM (inactive) and the GI50 (UO-31) was 19.3 µM (inactive). For the same molecule, the GI50 (PC-3) was 18.7 µM (inactive), the GI50 (UACC-257) was 26.8 µM (inactive) and the GI50 (HCC 2998) was 27.9 µM (inactive). The GI50 (KM12) was 6.78 µM (inactive), the GI50 (SW-620) was 20.4 µM (inactive) and the GI50 (HT-29) was 16.6 µM (inactive). For the same molecule, the GI50 (SK-MEL-5) was 18.2 µM (inactive), the GI50 (UACC-62) was 13.4 µM (inactive) and the GI50 (NCI-H226) was 30.5 µM (inactive). The GI50 (Malme-3M) was 12.6 µM (inactive), the GI50 (HL-60) was 21.2 µM (inactive) and the GI50 (RPMI-8226) was 11.1 µM (inactive). The GI50 (SK-OV-3) was 31.1 µM (inactive), the GI50 (Hs-578T) was 43.2 µM (inactive) and the GI50 (M14) was 51.4 µM (inactive). For the same molecule, the GI50 (A549) was 49.8 µM (inactive), the GI50 (SF-539) was 32.2 µM (inactive) and the GI50 (U-251) was 38.7 µM (inactive). The GI50 (DU-145) was 48 µM (inactive), the GI50 (SNB-19) was > 100 µM (inactive) and the GI50 (MDA-MB-231) was 16.6 µM (inactive). The GI50 (HCT-116) was 25.2 µM (inactive), the GI50 (K562) was 6.81 µM (inactive) and the GI50 (LOX IMVI) was 28.5 µM (inactive). For the same molecule, the GI50 (SN12C) was 20.6 µM (inactive), the GI50 (MDA-MB-435) was 4.57 µM (inactive) and the GI50 (OVCAR-5) was 64 µM (inactive). For the same molecule, the GI50 (MOLT-4) was 38.6 µM (inactive), the GI50 (OVCAR-3) was 32.4 µM (inactive) and the GI50 (A498) was > 100 µM (inactive).
